In data set [1] the target is T1, US Standard Human Thrombin (Homo sapiens, UniProt P00734).
T1 construct: US Standard Human Thrombin; purchased NIH, Bethesda, Md., USA
Description: Antithrombin activity: clotting time in the thrombin-fibrinogen system. The class given is biochemical. Conditions: for Initial activity I80 (zero day): peptide concentration in the reaction mixture inducing a fivefold prolongation of clotting time compared to the control (15 s). The procedure: Antithrombin activities were assayed in a system containing the following components:
(§1) 0.2 ml 0.5 percent bovine fibrinogen in a 0.9 percent solution of sodium chloride,
0.1 ml tris(hydroxymethyl)-amino-methane-hydrochloride-hydrochloric acid buffer (pH=7.2) containing the peptide solution, and
0.1 ml US Standard Human Thrombin (NIH, Bethesda, Md., USA), 10 unit/ml solution.
The clotting time of the peptide-free system is 15 s, measured in the "Schnither-Gross-Coagulometer". The initial activity of the tripeptide-aldehyde sulfates was arbitrarily set up as the mole concentration inducing the fivefold prolongation of clotting time in the system compared to the control (I80 value). The activity of the peptides in the solutions, assayed on the 1st, 3rd and 5th day, was expressed as a percentage of the initial activity (zero day).

Data set [2] concerns the target T1, US Standard Human Thrombin. Kind of data set: Change in the antithrombin activity of aqueous solutions of tripeptide-aldehyde sulfates on storage. Conditions: aqueous solution 10 mg/ml; for loss of initial antithrombin activity during the observation period: pH 6.0, 40° C., 5 days; for Activity (%) Day 1 / Activity (%) Day 2 / Activity (%) Day 3: percentage of initial activity, pH = 6.0, stored at 40° C. The class given is physicochemical. Here is the method:
The transformations proceeding in the solutions were monitored by chromatography and by measuring antithrombin activity. Antithrombin activities were assayed in a system containing the following components: […] 0.1 ml US Standard Human Thrombin (NIH, Bethesda, Md., USA), 10 unit/ml solution. The clotting time of the peptide-free system is 15 s, measured in the "[…]-Gross-Coagulometer". The initial activity of the tripeptide-aldehyde sulfates was arbitrarily set up as the mole concentration inducing the fivefold prolongation of clotting time in the system compared to the control ([…] value).

Data set [3] is described as follows: Conversion to the tricyclic compound in aqueous solution, monitored by chromatography. Conditions: for irreversible conversion to the tricyclic compound: aqueous solution 10 mg/ml, pH=6.0, 40° C., 5 days, thin-layer chromatography. The data set is classed as physicochemical. Here is the method:
The structure of this compound [1,2,4,5,6,6a-hexahydro-1-benzyl-2-oxo-8-(4'-guanidino)-butyl-pyrrolo[1,2- a]imidazolo[2,1-c]pyrazine] was confirmed by mass spectrometry and NMR spectroscopy. […] 817], they are less suitable for anticoagulant therapy.
During stability testing aqueous solutions of D-phenylalanyl-L-prolyl-L-arginine-aldehyde sulfate as well as of the corresponding N-alkyl derivatives with a concentration of 10 mg/ml (pH=6.0) were stored at 40° C. for 5 days. The transformations proceeding in the solutions were monitored by chromatography and by measuring antithrombin activity.

The target of data set [4] is T2, plasmin (Homo sapiens, UniProt P00747).
T2 construct: 0.1 U plasmin dissolved in buffer solution (KABI, Stockholm, Sweden); purchased KABI, Stockholm, Sweden
T2 sequence (P00747 581-810 limits assumed): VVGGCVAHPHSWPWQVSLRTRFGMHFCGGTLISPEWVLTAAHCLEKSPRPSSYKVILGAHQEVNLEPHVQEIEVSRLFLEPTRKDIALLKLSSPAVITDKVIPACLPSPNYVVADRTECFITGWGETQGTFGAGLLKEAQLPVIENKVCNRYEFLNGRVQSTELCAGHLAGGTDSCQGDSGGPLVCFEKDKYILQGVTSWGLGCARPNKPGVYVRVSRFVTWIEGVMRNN
T2 sequence (P00747 97-580 partner limits assumed): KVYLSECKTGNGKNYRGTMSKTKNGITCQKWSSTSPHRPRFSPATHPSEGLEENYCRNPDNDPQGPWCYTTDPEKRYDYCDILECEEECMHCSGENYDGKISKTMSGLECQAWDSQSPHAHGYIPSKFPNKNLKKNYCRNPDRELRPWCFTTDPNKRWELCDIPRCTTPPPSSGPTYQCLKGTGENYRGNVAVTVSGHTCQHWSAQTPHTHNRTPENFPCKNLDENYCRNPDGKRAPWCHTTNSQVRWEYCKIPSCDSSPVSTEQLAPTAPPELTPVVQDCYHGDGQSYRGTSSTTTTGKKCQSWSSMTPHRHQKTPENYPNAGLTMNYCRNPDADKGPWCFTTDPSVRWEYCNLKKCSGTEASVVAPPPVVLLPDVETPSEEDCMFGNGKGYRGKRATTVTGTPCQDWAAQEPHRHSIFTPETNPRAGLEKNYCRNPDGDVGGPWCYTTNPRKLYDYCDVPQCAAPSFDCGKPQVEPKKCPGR
Description: Effect on the plasmin-fibrin reaction: lysis time of fibrin clot. The data set is classed as biochemical. On the set-up: key: **: No measurable lysis time due to clot of rather loose structure. Conditions: peptide-free system 10 minutes. Here is the method:
as §1
0.1 ml tris(hydroxymethyl)-amino-methane hydrochloride-hydrochloric acid buffer (pH=7.2), containing the peptide,
0.1 ml 0.1 U plasmin dissolved in buffer solution (KABI, Stockholm, Sweden), and
0.1 ml US Standard Human Thrombin (NIH, Bethesda, Md., USA) 10 U/ml solution.
The lysis time of the fibrin gel formed in the peptide-free system is 10 minutes. D-Phenylalanyl-L-prolyl-L-arginine-aldehyde sulfate and the above-mentioned t-butyloxycarbonyl-D-phenylalanyl-L-prolyl-L-arginine-aldehyde hemisulfate were used as reference substances.

In a further data set the test system is male New Zealand rabbits. Kind of data set: In vivo anticoagulant effect: whole blood clotting time and plasma thrombin time. Conditions: lowest dose required to attain therapeutic effect; for Lowest effective dose iv: intravenous infusion for 3 hours; for Lowest effective dose po: oral administration. More on the design: species or system rabbit. The procedure:
The peptides, dissolved in isotonic saline solution, were administered orally or intravenously to male New Zealand rabbits weighing 2 to 3 kg. At intravenous application infusions of 0.5 to 2.0 mg/kg/h were given at a rate of 6 ml/h for 3 hours. At oral administration 20 to 30 mg/kg doses of the peptides were given in volumes of 2 ml. After application blood samples were taken in 30 minute periods from the ear vein of the rabbits and the clotting time of whole blood was assayed in a Thromboelastograph [H. Harter: Zeitschrift fur klinische Medizin 153, 423 (1955)], simultaneously the plasma thrombin time was measured, too [R. T. S. Jim: J. Lab. Clin. Med. 50, 45 (1957)]. The lowest doses required to attain therapeutic effect (M. Verstraete and R. Verwilghen in Drug Treatment, 2nd ed., Ed.: G. S. Avery, Churchill Livingstone, Edinburgh-London, 1980, p. 919) were presented in Table 3, D-phenylalanyl-L-prolyl-L-arginine-aldehyde sulfate served as reference substance.

Data set [5] deals with T1, US Standard Human Thrombin. Conditions: cool solution (5° C.), prolonged period; Belgian patent specification No. 891,708; cited from earlier work.
A short description of data set [6]: Conversion to the tricyclic compound in aqueous solution, monitored by chromatography. The data set is classed as physicochemical.
Data set [7] addresses T1, US Standard Human Thrombin. Conditions: literature statement; cited from earlier work.
Data set [8] concerns the target T2, plasmin. Conditions: literature statement; cited from earlier work.

We go through 10 molecules from patent US4703036A, “Peptide-aldehydes, process for the preparation thereof and pharmaceutical compositions containing the same” (Richter Gedeon Vegyeszeti Gyar RT, priority 1984, dated 1987).

Non-standard residues stand in square brackets, D forms with d. Residues, ends and D or L forms follow the SMILES beside them. dNMeaIle = CC[C@H](C)[C@@H](NC)C(=O)O

As to “1,2,4,5,6,6a-hexahydro-1-benzyl-2-oxo-8-(4'-guanidino)-butyl-pyrrolo[1,2- a]imidazolo[2,1-c]pyrazine [tricyclic compound]”, the enzyme inhibitory activity entry in data set [1] (conversion product, method not described) is on record as “devoid of enzyme inhibitory activity”.

For the molecule `N=C(N)NCCC[C@@H](C=O)NC(=O)[C@@H]1CCCN1C(=O)[C@H](N)Cc1ccccc1.O=S(=O)(O)O` [D-Phenylalanyl-L-prolyl-L-arginine-aldehyde sulfate, reference compound], the “Initial activity I80 (zero day)” value in [1] is 0.25 µM. Moreover, in data set [2], the “loss of initial antithrombin activity during the observation period” value (shortened to “loss”) was “more than 50%”, the “Activity (%) Day 1” value was determined as 100%, the “Activity (%) Day 2” value is recorded as 50% and the “Activity (%) Day 3” value is 40%. Also, the “irreversible conversion to the tricyclic compound” value (“irreversible conversion” below) in [3] is on record as “gradually reduced”. Further, the “Lysis time of fibrin clot” value at plasmin [4] (peptide content 0.18 μM) amounted to 10 min. Besides, at plasmin [4] (peptide content 0.36 μM), the “Lysis time of fibrin clot” value is “**”. Moreover, at plasmin [4] (peptide content 0.72 μM), the “Lysis time of fibrin clot” value is “no clot formed”. For the same molecule, in the data set with male New Zealand rabbits, the “Lowest effective dose iv” value is given as 0.5 mg/kg/h and the “Lowest effective dose po” value is reported as 20 mg/kg. The “stability: retention of initial activity in cool solution” value in data set [5] is “retaining its initial activity”. In [6] (37° to 40° C.), the “time to practically complete transformation into the tricyclic compound at 37° to 40° C.” value lay within 10 to 14 days. In data set [6] (80° to 100° C.), the “transformation into the tricyclic compound at 80° to 100° C.” value is “within hours”.

Consider `CC(=O)O.N=C(N)NCCC[C@@H](C=O)NC(=O)[C@@H]1CCCN1C(=O)[C@H](N)Cc1ccccc1` [D-phenylalanyl-L-prolyl-L-arginine-aldehyde acetate, reference compound], for which the “transformation into the corresponding tricyclic compound” value in data set [3] (conditions not stated) was “especially highly susceptible”.

With `CN(C)[C@H](Cc1ccccc1)C(=O)N1CCC[C@H]1C(=O)N[C@H](C=O)CCCNC(=N)N.O=S(=O)(O)O` [N,N-Dimethyl-D-phenylalanyl-L-prolyl-L-arginine-aldehyde sulfate], the “irreversible conversion” value in [3] is recorded as “no such conversion was detectable”. The “Lowest effective dose po” value in the data set with male New Zealand rabbits is 30 mg/kg.

As for `CCN[C@H](Cc1ccccc1)C(=O)N1CCC[C@H]1C(=O)N[C@H](C=O)CCCNC(=N)N.O=S(=O)(O)O` [N-Ethyl-D-phenylalanyl-L-prolyl-L-arginine-aldehyde sulfate], the “Initial activity I80 (zero day)” value in [1] turned out to be 0.21 µM. Moreover, in data set [2], the “loss” value is 15 to 20%, the “Activity (%) Day 1” value is 100%, the “Activity (%) Day 2” value is listed as 100% and the “Activity (%) Day 3” value was found to be 85%. Further, the “irreversible conversion” value in data set [3] (listed as N-ethyl derivative, sulfate) was “no such conversion was detectable”. Besides, the “irreversible conversion” value in data set [3] (sulfate) is given as “fail to be irreversibly converted”. For the same molecule, in the data set on male New Zealand rabbits, the “Lowest effective dose iv” value is 0.5 mg/kg/h and the “Lowest effective dose po” value was 20 mg/kg.

In the case of `CC(C)CN[C@H](Cc1ccccc1)C(=O)N1CCC[C@H]1C(=O)N[C@H](C=O)CCCNC(=N)N.O=S(=O)(O)O` [N-Isobutyl-D-phenylalanyl-L-prolyl-L-arginine-aldehyde sulfate], in [1], the “Initial activity I80 (zero day)” value turned out to be 0.31 µM. For the same molecule, in data set [2], the “loss” value is given as 15 to 20%, the “Activity (%) Day 1” value came out at 100%, the “Activity (%) Day 2” value was determined as 85% and the “Activity (%) Day 3” value is reported as 80%. In [3] (listed as N-isobutyl derivative, sulfate), the “irreversible conversion” value was “no such conversion was detectable”. In addition, the “irreversible conversion” value in [3] (sulfate) is “fail to be irreversibly converted”. Also, the “Lowest effective dose po” value with male New Zealand rabbits is given as 20 mg/kg.

As to `CC[C@H](C)[C@@H](NC)C(=O)N1CCC[C@H]1C(=O)N[C@H](C=O)CCCNC(=N)N.O=S(=O)(O)O` [N-Methyl-D-alloisoleucyl-L-prolyl-L-arginine-aldehyde sulfate] (H-[dNMeaIle]-Pro-Arg-aldehyde), in the data set with male New Zealand rabbits, the “Lowest effective dose iv” value was determined as 1.0 mg/kg/h and the “Lowest effective dose po” value is reported as 30 mg/kg.

Consider `CN[C@H](Cc1ccccc1)C(=O)N1CCC[C@H]1C(=O)N[C@@H](C=O)CCCNC(=N)N.O=S(=O)(O)O` [N-Methyl-D-phenylalanyl-L-prolyl-D-arginine-aldehyde sulfate], for which the “Initial activity I80 (zero day)” value in data set [1] worked out at 0.25 µM. In data set [2], the “Activity (%) Day 1” value is given as 100%, the “Activity (%) Day 2” value is on record as 100% and the “Activity (%) Day 3” value is 100%.

Consider `CN[C@H](Cc1ccccc1)C(=O)N1CCC[C@H]1C(=O)N[C@H](C=O)CCCNC(=N)N.O=S(=O)(O)O` [N-Methyl-D-phenylalanyl-L-prolyl-L-arginine-aldehyde sulfate], for which the “loss” value in data set [2] is reported as “retained its initial potency”. Also, the “irreversible conversion” value in data set [3] (listed as N-methyl derivative, sulfate) was “no such conversion was detectable”; in data set [3] (sulfate) it was “fail to be irreversibly converted”. For the same molecule, the figures for the “Lysis time of fibrin clot” value on plasmin [4] (peptide content 0.18 μM), at plasmin [4] (peptide content 0.36 μM) and at plasmin [4] (peptide content 0.72 μM) were 10 min, “**” and “no clot formed”, respectively. Further, the “Lowest effective dose iv” value in the data set on male New Zealand rabbits is on record as 0.5 mg/kg/h. In addition, the “Lowest effective dose po” value in the data set with male New Zealand rabbits was found to be 20 mg/kg.

Turning to “t-butyloxycarbonyl-D-phenylalanyl-L-prolyl-L-arginine-aldehyde hemisulfate”, the figures for the “Lysis time of fibrin clot” value on plasmin [4] (peptide content 0.18 μM), at plasmin [4] (peptide content 0.36 μM) and at plasmin [4] (peptide content 0.72 μM) were 10 min, 20 min and 40 min, respectively. Also, the “inhibition of the thrombin-fibrinogen reaction” value in [7] is given as “inhibit”. Moreover, the “effect on the plasmin-fibrin reaction” value at plasmin [8] is “inhibit”.
